In US10858413B2, “Immunoglobulins and uses thereof” (Janssen Pharmaceutica NV, priority 2016, dated 2020):
Marks after values point to notes of the source that are not given here.

Tests used:
PTHR1 = biological target: T1, PTHR1 (Homo sapiens, UniProt Q03431); test: class B GPCR cAMP assay, PTHR1; assay type: cell-based
T1 construct: host or cells: cells of an unnamed vendor
T1 sequence (Q03431 27-593): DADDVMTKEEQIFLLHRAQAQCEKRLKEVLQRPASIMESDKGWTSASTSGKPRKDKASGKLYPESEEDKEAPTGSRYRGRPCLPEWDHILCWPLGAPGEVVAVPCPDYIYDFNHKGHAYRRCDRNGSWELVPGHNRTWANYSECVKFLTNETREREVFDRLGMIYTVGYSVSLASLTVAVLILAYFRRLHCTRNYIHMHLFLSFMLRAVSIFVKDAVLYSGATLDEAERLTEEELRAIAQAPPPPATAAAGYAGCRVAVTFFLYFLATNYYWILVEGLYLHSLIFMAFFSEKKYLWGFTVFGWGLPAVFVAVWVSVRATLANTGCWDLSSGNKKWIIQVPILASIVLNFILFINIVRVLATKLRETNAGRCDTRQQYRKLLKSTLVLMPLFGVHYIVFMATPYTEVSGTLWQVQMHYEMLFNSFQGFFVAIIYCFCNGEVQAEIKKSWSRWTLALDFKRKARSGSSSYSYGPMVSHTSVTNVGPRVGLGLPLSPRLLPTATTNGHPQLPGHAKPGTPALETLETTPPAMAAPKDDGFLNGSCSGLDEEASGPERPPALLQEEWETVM
Protocol: The assays were performed according to the vendor's standard operating procedures with a positive control included for each receptor tested.

[1] = Single-dose efficacy in DIO mice: body weight change; details: single s.c. dose 0.3 nmol/kg, 18 hours after treatment, relative to day 0
DIO mice [2] = test: Repeat dosing in DIO mice: daily food intake; assay type: in vivo, mouse; details: 0.3 nmol/kg s.c. daily
Protocol: (§1) To control for the dosing frequency, all animals were dosed daily. Dosing frequency was determined on the basis of DIO mouse PK data for compound 2 and dulaglutide. Animals in the dulaglutide group received this drug daily. The vehicle-treated animals received vehicle daily. […] The day prior to initiating of dosing, animals were weighed and grouped by body weight. […].
(§2) Beginning 24-hr after the first dosing, three groups of mice were pair-fed (PF) to the 1.0, 2.0, or 4.0 nmol/kg compound 2-treated animals. The amount of food in the hopper of pair-fed mice was adjusted to match the average food consumed in the previous 24 hours by mice in the compound treatment group to which they were being matched. All PF groups were dosed daily with vehicle. On the ninth day (or Day 10 for the pair-fed groups), animals were fasted for 6 hours and body weight and fasting glucose were measured. Blood was collected for measurements of insulin, FGF21 and plasma lipids. The food intake, body weight, body composition, fasting glucose, fasting insulin, fasting FGF21, and fasting plasma lipid data are shown in tables 20-26.

DIO mice [3] = test: Single-dose efficacy in DIO mice: plasma FGF21; details: 26 hours after treatment, single s.c. dose 0.3 nmol/kg
DIO mice [4] = test: Fed blood glucose in DIO mice after 8 days of treatment; assay type: in vivo, mouse; details: 0.3 nmol/kg s.c. every day
Protocol: (§3) Compound 1 was evaluated for its ability to reduce foot intake and body weight and improve glucose homeostasis on repeat dosing in male DIO C57B1/6 mice over a period of 8 days. Male DIO C57BL/6N mice (20 weeks of age, 14 weeks on high fat diet) were obtained from Taconic Laboratory. […] Animals were acclimated to the facility for at least one week prior to the start of the experiment.
(§4) The day prior to dosing, mice were grouped based on individual body weights. At 3:00-4:00 pm for each of the next 8 days, animals and food intake were weighed. […] After 8 days, mice are fasted for 5 hours and then given a 2 g/kg bolus of glucose orally at t=0. At t=0, 30, 60, 90, and 120 minutes post glucose challenge blood glucose is measured and at t=0, 30, and 90 minutes blood in drawn to measure plasma insulin. […] All data are presented as the mean±SEM (FIGS. 8 and 9, and Tables 5-8).

[5] = Repeat dosing in DIO mice: body weight change and body composition; assay type: in vivo, mouse; details: 0.3 nmol/kg s.c. daily
Protocol: as §1, §2

DIO mice [6] = test: OGTT (blood glucose, insulin) in DIO mice after 8 days of treatment; assay type: in vivo, mouse; details: 0.3 nmol/kg s.c. every day
Protocol: as §3, §4

DIO mice [7] = test: Repeat dosing in DIO mice: fasting glucose, insulin, FGF21, plasma lipids; assay type: in vivo, mouse; details: after repeated dosing, 0.3 nmol/kg s.c. daily
Protocol: as §1, §2

DIO mice [8] = test: Single-dose efficacy in DIO mice: food intake; details: single s.c. dose 0.3 nmol/kg
DIO mice [9] = test: Single-dose efficacy in DIO mice: fasting glucose, IPGTT glucose and insulin; details: single s.c. dose 0.3 nmol/kg

CC[C@H](C)[C@H](NC(=O)[C@H](CCC(=O)O)NC(=O)[C@H](CO)NC(=O)[C@@H](NC(=O)[C@@H](N)CO)C(C)C)C(=O)N[C@@H](CCC(N)=O)C(=O)N[C@@H](CC(C)C)C(=O)N[C@@H](CCSC)C(=O)N[C@@H](Cc1cnc[nH]1)C(=O)N[C@@H](CC(N)=O)C(=O)N[C@@H](CC(C)C)C(=O)NCC(=O)N[C@@H](CCCCN)C(=O)N[C@@H](Cc1cnc[nH]1)C(=O)N[C@@H](CC(C)C)C(=O)N[C@@H](CC(N)=O)C(=O)N[C@@H](CO)C(=O)N[C@@H](CCSC)C(=O)N[C@@H](CCC(=O)O)C(=O)N[C@@H](CCCNC(=N)N)C(=O)N[C@H](C(=O)N[C@@H](CCC(=O)O)C(=O)N[C@@H](Cc1c[nH]c2ccccc12)C(=O)N[C@@H](CC(C)C)C(=O)N[C@@H](CCCNC(=N)N)C(=O)N[C@@H](CCCCN)C(=O)N[C@@H](CCCCN)C(=O)N[C@@H](CC(C)C)C(=O)N[C@@H](CCC(N)=O)C(=O)N[C@@H](CC(=O)O)C(=O)N[C@H](C(=O)N[C@@H](Cc1cnc[nH]1)C(=O)N[C@@H](CC(N)=O)C(=O)N[C@@H](Cc1ccccc1)C(=O)O)C(C)C)C(C)C [PTH(1-34)]
Curve Bottom (PTHR1): −5.9767
Curve Top (PTHR1): 101
Hill (PTHR1): 1.8672

Dulaglutide: GLP1R agonist (long-acting GLP-1 receptor agonist) [reference compound]
Weight Change (%) [1]: −4.1 ± 0.3 %
daily food intake (DIO mice [2]; day 0): 3.1 ± 0.2 grams
daily food intake (DIO mice [2]; day 1): 1.5 ± 0.2 grams
daily food intake (DIO mice [2]; day 2): 1.3 ± 0.2 grams
daily food intake (DIO mice [2]; day 3): 1.7 ± 0.3 grams
daily food intake (DIO mice [2]; day 4): 1.9 ± 0.2 grams
daily food intake (DIO mice [2]; day 5): 2.1 ± 0.2 grams
daily food intake (DIO mice [2]; day 6): 2.2 ± 0.2 grams
daily food intake (DIO mice [2]; day 7): 2.3 ± 0.2 grams
daily food intake (DIO mice [2]; day 8): 2.9 ± 0.4 grams
daily food intake (DIO mice [2]; day 9): 2.5 ± 0.2 grams
Plasma FGF21 (DIO mice [3]): 0.8 ± 0.2 ng/mL
fed Blood Glucose (DIO mice [4]): 114 ± 13 mg/dL
percent body weight change ([5]; day 0, relative to day 0): 0.0%
percent body weight change ([5]; day 1, relative to day 0): −3.7 ± 0.3%
percent body weight change ([5]; day 2, relative to day 0): −6.2 ± 0.6%
percent body weight change ([5]; day 3, relative to day 0): −7.8 ± 0.8%
percent body weight change ([5]; day 4, relative to day 0): −9.2 ± 0.8%
percent body weight change ([5]; day 5, relative to day 0): −10.1 ± 0.8%
percent body weight change ([5]; day 6, relative to day 0): −10.2 ± 0.8%
percent body weight change ([5]; day 7, relative to day 0): −10.7 ± 1.0%
percent body weight change ([5]; day 8, relative to day 0): −11.1 ± 0.9%
percent body weight change ([5]; day 9, relative to day 0): −13.1 ± 1.1%
body composition: Fat Mass ([5]; after repeated dosing): 7.6 ± 1.1 g
body composition: Fat, % of Body Weight ([5]; after repeated dosing): 22.8 ± 1.2%
body composition: Lean Mass ([5]; after repeated dosing): 22.1 ± 0.3 g
body composition: Lean, % of Body Weight ([5]; after repeated dosing): 61.0 ± 1.7%
blood glucose Delta AUC (OGTT) (DIO mice [6]): 6668 ± 1846 mg/dl/120 min
blood glucose Total AUC (OGTT) (DIO mice [6]): 15758 ± 1054 mg/dl/120 min
blood glucose during an OGTT (DIO mice [6]; 0 min after glucose challenge): 76 ± 9 mg/dL
insulin during an OGTT (DIO mice [6]; 0 min after glucose challenge): 0.6 ± 0.1 ng/mL
blood glucose during an OGTT (DIO mice [6]; 30 min after glucose challenge): 151 ± 14 mg/dL
insulin during an OGTT (DIO mice [6]; 30 min after glucose challenge): 1.7 ± 0.2 ng/mL
blood glucose during an OGTT (DIO mice [6]; 60 min after glucose challenge): 174 ± 17 mg/dL
blood glucose during an OGTT (DIO mice [6]; 90 min after glucose challenge): 104 ± 10 mg/dL
insulin during an OGTT (DIO mice [6]; 90 min after glucose challenge): 0.7 ± 0.2 ng/mL
blood glucose during an OGTT (DIO mice [6]; 120 min after glucose challenge): 119 ± 9 mg/dL
6 hour fasting Blood Glucose (DIO mice [7]): 123 ± 5 mg/dL
6 hour fasting Plasma Insulin (DIO mice [7]): 1.4 ± 0.2 ng/mL
6 hour fasting plasma FGF21 (DIO mice [7]): 0.5 ± 0.1 ng/mL
plasma Free Fatty Acids (DIO mice [7]): 73.2 ± 12.0 µmol/L
plasma Free Glycerol (DIO mice [7]): 0.5 ± 0.1 mmol/L
plasma Total cholesterol (DIO mice [7]): 146.1 ± 3.3 mg/dL
plasma Tri-glycerides (DIO mice [7]): 24.1 ± 2.3 mg/dL
food intake (DIO mice [8]; 18 hours post-dose): 1.5 ± 0.1*^ grams
food intake (DIO mice [8]; 24 hours pre-dose): 3.1 ± 0.1 grams
6 hour fasting Blood Glucose (DIO mice [9]; 24 hours after treatment): 140 ± 7 mg/dL
Blood Glucose Net AUC during an IPGTT (DIO mice [9]; 24 hours after treatment): 8471 ± 1204
blood glucose during an IPGTT (DIO mice [9]; 24 hours after treatment, 0 min): 140 ± 7 mg/dL
blood glucose during an IPGTT (DIO mice [9]; 24 hours after treatment, 10 min): 264 ± 18 mg/dL
blood glucose during an IPGTT (DIO mice [9]; 24 hours after treatment, 30 min): 267 ± 22 mg/dL
blood glucose during an IPGTT (DIO mice [9]; 24 hours after treatment, 60 min): 228 ± 12 mg/dL
blood glucose during an IPGTT (DIO mice [9]; 24 hours after treatment, 90 min): 193 ± 9 mg/dL
Plasma Insulin (DIO mice [9]; 10 minutes post-glucose (IPGTT)): 1.7 ± 0.2 ng/mL
Plasma Insulin (DIO mice [9]; Pre-glucose (24 hours after treatment)): 1.6 ± 0.2 ng/mL
